Laboratory results taken from paper PMC8474110 (Journal of Medicinal Chemistry, 2021).
Where two headings read alike, the source gives them in different places.

Experiments:
σ2 receptor = biological target: T1, σ2 receptor (Cavia porcellus, UniProt H0V073); test: σ2 receptor binding assay, [3H]-DTG, guinea pig brain membranes
T1 construct: the guinea pig brain membranes (300 μL, 360 μg protein) were incubated for 120 min at room temperature with 3 nM [^3H]-DTG; from tissue; host or cells: guinea pig brain membranes
T1 sequence (H0V073 1-176): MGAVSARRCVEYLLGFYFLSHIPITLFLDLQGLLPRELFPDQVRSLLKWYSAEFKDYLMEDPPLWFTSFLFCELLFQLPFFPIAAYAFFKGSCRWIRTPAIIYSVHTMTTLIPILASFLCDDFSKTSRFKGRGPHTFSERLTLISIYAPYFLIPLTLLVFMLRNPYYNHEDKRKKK
Procedure: (§1) The σ1 and σ2 receptor binding studies were performed according to the literature.[46],[47] Briefly, for the σ1 receptor binding assay, guinea pig brain membranes (400 μL, 500 μg protein) were incubated for 150 min at 37 °C with 3 nM of the radiolabeled ligand [^3H]-(+)-pentazocine (45 Ci/mmol) and increasing concentrations of tested compounds in 50 mM Tris-HCl (pH 7.4) to a total volume of 1 mL. […] Moreover, σ2 receptor binding assays were made according to the following protocol: the guinea pig brain membranes (300 μL, 360 μg protein) were incubated for 120 min at room temperature with 3 nM [^3H]-DTG (31 Ci/mmol) in the presence of 0.4 mM […] (+)-SKF10,047 to block the σ1 sites. The incubation was performed in 50 mM Tris-HCl (pH 8.0) to a total volume of 0.5 mL with increasing concentrations of each test compound. Nonspecific binding was evaluated in the presence of 5 μM DTG.
(§2) Each sample was filtered through Whatman GF/B glass fiber filters, which were presoaked for 1 h in a 0.5% poly(ethylenimine) solution, using a Millipore filter apparatus. Filters were washed twice with 4 mL of ice-cold buffer. Radioactivity was counted in 4 mL of “Ultima Gold MV” in a 1414 WinSpectral PerkinElmer Wallac or Beckman LS6500 scintillation counter. Inhibition constants (Ki values) were calculated using the EBDA/LIGAND program purchased from Elsevier/Biosoft.

human UM 92-1 cells = test: Crystal violet proliferation assay in human UM 92-1 cells; assay type: cell-based; conditions: for IC50: 48 h
Procedure: Then, actions on cell proliferation were examined by crystal violet staining (Figure 6).
HREC and human 92-1 cell (seeded 4 × 10^3 and grown for 24 h at optimum culture conditions) proliferation was measured using crystal violet staining after treatment in 96-well plates with the indicated concentrations of chemicals for an additional 48 h. Control cells received an equal volume of vehicle (DMSO). At the end of the treatment, each well was washed with phosphate-buffered saline (PBS). Following this, the cells were fixed (in 4% paraformaldehyde) and stained with crystal violet solution (0.5% in 20% methanol for HREC or 1% aqueous solution for 92-1 cells). Subsequently, the plate was washed with water and left to dry. Crystal violet staining was evaluated by measuring the absorbance at 570 nm or 590 nm, after crystal violet extraction with 10% acetic acid (at room temperature for 10 min), with a microplate reader with the plate reader (Synergy 2-BioTek). For quantification, each assay was carried out in triplicate.

σ1 receptor = biological target: T2, σ1 receptor (Cavia porcellus, UniProt Q60492); test: σ1 receptor binding assay, [3H]-(+)-pentazocine, guinea pig brain membranes
T2 construct: from tissue; host or cells: guinea pig brain membranes
Procedure: as §1, §2

HREC [1] = test: MTT viability test on HREC; assay type: cell-based; conditions: Homo sapiens
Procedure: To dissect enantiomer contributions to antiangiogenic effects by (±)-1, compounds (+)-1 and (−)-1 were evaluated on HREC, an endothelial cell model of angiogenesis.[40] First, HREC viability was assessed by the 3-[4,5–dimethylthiazol-2-yl]-2,5-diphenyltetrazolium bromide (MTT) assay to verify the tolerability of the enantiomers, and different concentrations (1.0, 2.5, 5.0, 10.0, and 20.0 μM) of the compounds were tested for 24, 48, and 72 h. The IC50 values of (+)-1 and (−)-1 were calculated and compared to (±)-1 and its precursors (Table 3).
For cell viability assays, the 3-[4,5–dimethylthiazol-2-yl]-2,5-diphenyltetrazolium bromide (MTT assay, Chemicon, Temecula, CA) was used. The cells were seeded in 96-well plates at a density of 1.5 × 10^4 cells/well and were incubated overnight at 37 °C before the experiment. Afterward, the cells were treated for 24, 48, and 72 h in the presence of different concentrations (1.0, 2.5, 5.0, 10.0, 20.0 μM) of (±)-1, (+)-1, or (−)-1. After the treatments, the cells were incubated with MTT (5 mg/mL) for 3 h, and then 100 μL of dimethyl sulfoxide was added, and the absorbance was read in a plate reader (Synergy 2-BioTek) with a wavelength of 570 nm.

[2] = tested on: VEGF-A-stimulated human retinal endothelial cells (HRECs); parameters: method as in PMID 27739690; conditions: cited from earlier work
HREC [3] = conditions: cited from earlier work
[4] = Chemical stability (kinetics of chemical hydrolysis) in buffer solutions; assay type: physicochemical; conditions: for half-life at 9.1 µM: read-out: t1/2, chemical stability (converted)
Procedure: The chemical stability of (±)-1 was evaluated in buffer solutions at pH 1.3 and 7.4 (Table 1).
A 0.02 M phosphate buffer (PBS, pH 7.4) and a 0.02 M hydrochloric buffer (pH 1.3) containing 0.1% (v/v) Cremophor ELP, was used to evaluate chemical stabilities at physiological pHs. The reaction was initiated by adding 1 mL of 10^–4 M stock solution (in acetonitrile) of the compound to 10 mL of thermostated (37 ± 0.5 °C) buffer solution. At established time points, the samples (20 μL) were withdrawn and analyzed by HPLC. Pseudo-first-order rate constants (kobs) for the hydrolysis of the compounds were then calculated considering the slopes of the linear plots of log (% residual compound) against time. The analyses were run in triplicate, and the mean values of the rate constants were calculated.

[5] = Homo sapiens, read-out: IC50 on human 92-1 cells (proliferation, crystal violet), 48 h
[6] = read-out: IC50 on human 92-1 cells (proliferation, crystal violet)
[7] = 24 h, read-out: IC50, MTT viability test on HREC
[8] = 24 h, read-out: pIC50 ± SE, MTT viability test on HREC (converted)
[9] = 48 h, read-out: IC50, MTT viability test on HREC
[10] = 48 h, read-out: pIC50 ± SE, MTT viability test on HREC (converted)
[11] = 72 h, read-out: IC50, MTT viability test on HREC
[12] = 72 h, read-out: pIC50 ± SE, MTT viability test on HREC (converted)

T2 sequence (Q60492 whole entry): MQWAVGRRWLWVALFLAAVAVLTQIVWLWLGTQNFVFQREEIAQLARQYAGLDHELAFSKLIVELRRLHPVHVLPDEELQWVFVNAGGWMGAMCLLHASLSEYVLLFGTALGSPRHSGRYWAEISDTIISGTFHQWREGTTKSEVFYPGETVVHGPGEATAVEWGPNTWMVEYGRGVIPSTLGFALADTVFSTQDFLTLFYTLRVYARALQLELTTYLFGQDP

Compound	Ki (σ2 receptor)	IC50 (human UM 92-1 cells; [5])	IC50 (human UM 92-1 cells; [6])	Ki (σ1 receptor)	IC50 (HREC [1]; [7])	IC50 (HREC [1]; [8])	IC50 (HREC [1]; [9])	IC50 (HREC [1]; [10])	IC50 (HREC [1]; [11])	IC50 (HREC [1]; [12])	also measured
CCCC(CCC)C(=O)O[C@H](CCCN1CCC(O)(c2ccc(Cl)cc2)CC1)c1ccc(F)cc1 [(+)-1]	0.074 ± 0.0089 µM	4.95 µM	4.9 ± 0.58 µM	0.064 ± 0.0082 µM	9.8 µM	9.77 µM	6.4 µM	6.46 µM	4.4 µM	4.47 µM	
CCCC(CCC)C(=O)O[C@@H](CCCN1CCC(O)(c2ccc(Cl)cc2)CC1)c1ccc(F)cc1 [(−)-1]	0.056 ± 0.0064 µM	4.45 µM	4.4 ± 0.68 µM	0.016 ± 0.0017 µM	10.1 µM	10.7 µM	9 µM	9.12 µM	6.8 µM	6.92 µM	
CCCC(CCC)C(=O)OC(CCCN1CCC(O)(c2ccc(Cl)cc2)CC1)c1ccc(F)cc1 (racemic) [(±)-1]		5.46 µM	5.5 ± 0.74 µM								reduction of cell migration and proliferation, times more than (±)-HP-mII [2]: 20 times; reduction of cell migration and proliferation, times more than VPA [2]: 120 times; pIC50 ± SE, MTT viability test on HREC (HREC [3]; 24 h): 4.98 ± 0.02; pIC50 ± SE, MTT viability test on HREC (HREC [3]; 48 h): 4.95 ± 0.03; pIC50 ± SE, MTT viability test on HREC (HREC [3]; 72 h): 4.99 ± 0.04; Kobs, chemical stability ([4]; buffer pH 1.3, 37 °C): 0.007 ± 0.001 h^–1; Kobs, chemical stability ([4]; buffer pH 7.4, 37 °C): 0.007 ± 0.001 h^–1; time the racemate was stable ([4]; buffer solutions at pH 1.3 and 7.4 (both environments)): about 4 days; half-life at 9.1 µM ([4]; hydrochloric buffer, buffer pH 1.3, 37 °C): 100 ± 3.1 h; half-life at 9.1 µM ([4]; phosphate buffer, buffer pH 7.4, 37 °C): 96.4 ± 1.6 h; effect of PTZ, AC927 or their combination on the antiproliferative effects of the compound in 92-1 cells (human UM 92-1 cells; 5 μM compound, PTZ 2 μM, AC927 2 μM): did not perturb; antiproliferative effect with respect to VPA alone (human UM 92-1 cells; UM 92-1 cells): about 400 fold
